Experimental data as given in patent US8541404B2, “Inhibitors of the human aldosterone synthase CYP11B2” (ElexoPharm GmbH, priority 2009, dated 2013).

How the values were obtained:
[1] = target: T1, human aldosterone synthase (CYP11B2) (Homo sapiens, UniProt P19099); experiment: Test for CYP11B2 inhibitors in V79 MZh11B2 cells (test system B); format: cell-based; details: for IC50: Table 1, V79 MZh11B2 cells, read-out: IC50 V79 11B2 hCYP11B2; for inhibition at 0.5 µM: V79MZh11B2, Table 2, percentage inhibition, inhibitor concentration 0.5 μM, read-out: % (0.5 μM) hCYP11B2
T1 construct: expressed in transfected cells; host or cells: V79 MZh11B2 (V79 Chinese hamster cells)
T1 sequence (P19099 25-503): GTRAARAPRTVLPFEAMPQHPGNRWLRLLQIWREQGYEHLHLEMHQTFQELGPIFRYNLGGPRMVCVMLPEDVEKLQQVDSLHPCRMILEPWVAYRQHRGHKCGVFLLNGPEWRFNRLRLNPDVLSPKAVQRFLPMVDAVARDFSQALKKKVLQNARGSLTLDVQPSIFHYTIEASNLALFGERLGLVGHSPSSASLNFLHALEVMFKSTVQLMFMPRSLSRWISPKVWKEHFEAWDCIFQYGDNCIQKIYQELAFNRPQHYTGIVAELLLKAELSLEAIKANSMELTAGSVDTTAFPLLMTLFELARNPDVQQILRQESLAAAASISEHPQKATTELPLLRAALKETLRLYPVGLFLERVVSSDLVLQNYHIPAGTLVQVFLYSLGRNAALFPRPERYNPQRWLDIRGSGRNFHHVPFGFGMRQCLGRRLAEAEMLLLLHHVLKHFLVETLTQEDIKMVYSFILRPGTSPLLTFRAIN
Protocol: B) Test for CYP11B2 Inhibitors (V79 MZh Cells):
(§1) Maintenance of the cells: V79 MZh11B2 and V79 MZh11B1, which recombinantly express human aldosterone synthase (CYP11B2) or steroid 11-β-hydroxylase CYP11B1) and were prepared according to Denner et al. (Denner, K. et al., Pharmacogenetics 5:89-96 (1995)), were cultured in cell culture dishes of 60 or 90 mm diameter in a CO2 incubator at 37° C. and in a water-saturated atmosphere containing 5% of CO2. Both cell lines were cultured in DMEM^+, which contained 10% of FCS and the antibiotics penicillin and streptomycin (1%) for protection from bacterial contamination. The cells were passaged every 2 to 3 days following treatment with trypsin/EDTA, since the doubling […], according to cell count, was 1 to 2 days. The cells were passaged up to 12 to 15 times in order to exclude possible cell changes. If needed, freshly thawed cells were employed.
(§2) Inhibition test: V79 MZh11B2- and V79 MZh11B1 cells (8·10^5 cells per well) were grown to confluence in 24-well cell culture plates with a 1.9 cm^2 culture area per hole (Nunc, Roskilde, Denmark). Before the test, the DMEM culture medium present was removed, and 450 μl of fresh DMEM with inhibitor were added to each hole in at least three different concentrations in order to determine the IC50 value. After preincubation (60 min, 37° C.), the reaction was started by the addition of 50 μl of DMEM containing 2.5 μl of a solution of the substrate 11-deoxycorticosterone (20 μM, containing 1.25 nCi of [4-^14C]11-deoxycorticosterone, in ethanol). The plate was then kept in the CO2 incubator at 37° C. and under 5% CO2. The V79 MZh11B1 cells were incubated for 120 min, the V79 MZh11B2 cells for 40 min. Controls not containing inhibitor were treated in the same manner. The enzyme reactions were stopped by extraction of the supernatant with 500 μl of EtOAc. The samples were centrifuged (10000×g, 2 min), and the solution was removed and evaporated. The residue was taken up in 10 μl of chloroform and analyzed by HPTLC (see below).
For V79 MZh11B2, the conversion followed according to equation 3: […]
(§3) The percentage inhibition which was caused by an inhibitor in the concentration employed in each case was calculated according to equation 2.
(§4) It was calculated by determining the percentage inhibition at least 3 different inhibitor concentrations, which must all lie in the linear range of the sigmoidal IC50 curve (log C/% inhibition). The calculation was carried out by linear regression. The values determined were only used if they formed a straight line at a probability r of >0.95.
(§5) The resuspended residue from example A) or B)—containing the radiolabeled steroids—was applied to an HPTLC plate (20×10 cm, silica gel 60F254) with a concentration zone (Merck, Darmstadt, Germany). The plate was developed twice using the mobile phase chloroform/methanol/water (300:20:1). Unlabeled […] and corticosterone were applied as a reference for the CYP11B1 reaction. For the CYP11B2 reaction, 11-deoxycorticosterone, corticosterone, 18-hydroxycorticosterone and aldosterone were used as a reference. The unlabeled references were detected at 260 nm. Subsequently, imaging plates (BAS MS2340, for ^14C samples, Raytest, Straubenhardt, Germany) were exposed for 48 h with the HPTLC plates. The imaging plates were scanned using the Phosphoimager system Fuji FLA 3000 (Raytest, Straubenhardt, Germany) and the steroids were quantified.

[2] = target: T2, steroid 11-β-hydroxylase CYP11B1 (hCYP11B1) (Homo sapiens, UniProt P15538); experiment: Inhibition test in V79 MZh11B1 cells (test system B); format: cell-based; details: for IC50: Table 1, V79 MZh11B1 cells, read-out: IC50 V79 11B1 hCYP11B1; for % (0.5 μM) hCYP11B1: Table 2, percentage inhibition, inhibitor concentration 0.5 μM
T2 construct: expressed in transfected cells; host or cells: V79 MZh11B1 (V79 Chinese hamster cells)
T2 sequence (P15538 25-503): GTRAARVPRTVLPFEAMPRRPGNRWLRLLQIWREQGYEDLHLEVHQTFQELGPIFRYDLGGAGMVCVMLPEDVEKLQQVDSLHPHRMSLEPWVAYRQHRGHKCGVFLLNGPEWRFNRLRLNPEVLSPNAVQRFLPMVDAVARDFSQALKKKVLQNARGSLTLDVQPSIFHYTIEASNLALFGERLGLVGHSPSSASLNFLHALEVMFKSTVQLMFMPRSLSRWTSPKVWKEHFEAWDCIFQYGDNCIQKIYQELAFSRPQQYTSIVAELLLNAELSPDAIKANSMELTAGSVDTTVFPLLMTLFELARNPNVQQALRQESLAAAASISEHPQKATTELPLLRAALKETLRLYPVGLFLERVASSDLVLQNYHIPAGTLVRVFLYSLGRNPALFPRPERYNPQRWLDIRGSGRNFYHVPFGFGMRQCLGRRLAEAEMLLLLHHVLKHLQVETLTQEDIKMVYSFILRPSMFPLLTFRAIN
Protocol: as §1, §2
In the case of V79 MZh11B1, conversion was calculated analogously to equation 1, wherein: […]
as §3, §4, §5

Row | melting point | also measured | SMILES
1 | 189 °C | IC50 [1]: 0.028 µM; IC50 [2]: 6.75 µM | O=C1CCc2cc(-c3cccnc3)ccc2N1 [Example 1, 6-Pyridin-3-yl-3,4-dihydro-1H-quinolin-2-one]
2 | 159 °C | IC50 [1]: 0.0002 µM; IC50 [2]: 0.087 µM | COc1cncc(-c2ccc3c(c2)CCC(=O)N3C)c1 [Example 6, 6-(5-Methoxypyridin-3-yl)-1-methyl-3,4-dihydro-1H-quinolin-2-one]
3 | 176 °C | % (0.5 μM) hCYP11B1 [2]: 97% | CN1C(=O)CCc2cc(-c3cncc4ccccc34)ccc21 [Example 7, 6-Isoquinolin-4-yl-1-methyl-3,4-dihydro-1H-quinolin-2-one]
4 | 267 °C | % (0.5 μM) hCYP11B1 [2]: 49% | S=C1CCc2cc(-c3cccnc3)ccc2N1 [Example 8, 6-Pyridin-3-yl-3,4-dihydro-1H-quinoline-2-thione]
5 | 91 °C | IC50 [1]: 0.021 µM; IC50 [2]: 5.97 µM | CCN1C(=O)CCc2cc(-c3cccnc3)ccc21 [Example 9, 1-Ethyl-6-pyridin-3-yl-3,4-dihydro-1H-quinolin-2-one]
6 | 178 °C | IC50 [1]: 0.0038 µM; IC50 [2]: 1.67 µM | O=C1CCc2cc(-c3cccnc3)cc(Cl)c2N1 [Example 12, 8-Chloro-6-pyridin-3-yl-3,4-dihydro-1H-quinolin-2-one]
7 | 240 °C | % (0.5 μM) hCYP11B1 [2]: 49% | O=C1CSc2cc(-c3cccnc3)ccc2N1 [Example 14, 7-Pyridin-3-yl-4H-benzo[1,4]thiazin-3-one]
8 | 150 °C | inhibition at 0.5 µM [1]: 95%; % (0.5 μM) hCYP11B1 [2]: 51% | COc1cncc(-c2cc3c4c(c2)CCC(=O)N4CCC3)c1 [Example 19, 9-(5-Methoxypyridin-3-yl)-1,2,6,7-tetrahydro-5H-pyrido[3,2,1-ij]quinolin-3-one]
9 | 124 °C | inhibition at 0.5 µM [1]: 87%; % (0.5 μM) hCYP11B1 [2]: 24% | O=C1CCc2cc(-n3ccnc3)cc3c2N1CC3 [Example 28, 8-Imidazol-1-yl-1,2,5,6-tetrahydro-pyrrolo[3,2,1-ij]quinolin-4-one]
10 | 184 °C |  | O=C(c1ccncc1)c1cc2c3c(c1)CCN3C(=O)CC2 [Example 31, 8-(Pyridine-4-carbonyl)-1,2,5,6-tetrahydro-pyrrolo[3,2,1-ij]quinolin-4-one]
11 | 147 °C |  | O=C(c1cccnc1)c1cc2c3c(c1)CCN3C(=O)CC2 [Example 32, 8-(Pyridine-3-carbonyl)-1,2,5,6-tetrahydro-pyrrolo[3,2,1-ij]quinolin-4-one]
12 | 189 °C |  | O=C1CCc2cc(-c3cncc(-c4ccccc4)c3)cc3c2N1CC3 [Example 33, 8-(5-Phenylpyridin-3-yl)-1,2,5,6-tetrahydro-pyrrolo[3,2,1-ij]quinolin-4-one]
13 | 155 °C |  | CC(C)Oc1cncc(-c2cc3c4c(c2)CCN4C(=O)CC3)c1 [Example 34, 8-(5-Isopropoxypyridin-3-yl)-1,2,5,6-tetrahydro-pyrrolo[3,2,1-ij]quinolin-4-one]
14 | 197 °C |  | CC(c1cc2c3c(c1)CCN3C(=O)CC2)n1ccnc1 (stereo not shown) [Example 35, 8-(1-Imidazol-1-yl-ethyl)-1,2,5,6-tetrahydro-pyrrolo[3,2,1-ij]quinolin-4-one]
15 | 233 °C |  | O=C1CCc2cc(-c3cncc(-c4ccc(F)cc4)c3)cc3c2N1CC3 [Example 36, 8-[5-(4-Fluorophenyl)-pyridin-3-yl]-1,2,5,6-tetrahydro-pyrrolo[3,2,1-ij]quinolin-4-one]
16 | 181 °C |  | O=C1CCc2cc(-c3cncc(-c4cccc(F)c4)c3)cc3c2N1CC3 [Example 37, 8-[5-(3-Fluorophenyl)-pyridin-3-yl]-1,2,5,6-tetrahydro-pyrrolo[3,2,1-ij]quinolin-4-one]
17 | 203 °C |  | O=C1CCc2cc(-c3cccnc3)cc(F)c2N1 [Example 46]
18 | 228 °C |  | O=C1CCc2cc(-c3cccnc3)c(F)cc2N1 [Example 47]
19 | 202 °C |  | O=C1CCc2cc(-c3cncc4ccccc34)cc(F)c2N1 [Example 48, 8-Fluoro-6-isoquinolin-4-yl-3-yl-3,4,4a,8a-tetrahydro-1H-quinolin-2-one]
20 | 281 °C |  | O=C1CCc2cc(-c3cncc4ccccc34)c(F)cc2N1 [Example 49]
21 | 298 °C |  | O=C1CCc2cc(-c3cccnc3)c(O)cc2N1 [Example 50]
22 | 235 °C |  | Fc1cc(-c2cccnc2)cc2c1NC(=S)CC2 [Example 51]
23 | 248 °C |  | Fc1cc2c(cc1-c1cccnc1)CCC(=S)N2 [Example 52]
24 | 256 °C |  | O=C1COc2cc(-c3cccnc3)ccc2N1 [Example 53, 7-(Pyridin-3-yl)-2H-benzo[b][1,4]oxazin-3(4H)-one]
25 | 266 °C |  | O=C1COc2cc(-c3cncc4ccccc34)ccc2N1 [Example 55, 7-(Isoquinolin-4-yl)-2H-benzo[b][1,4]oxazin-3(4H)-one]
26 | > 300 °C |  | O=C1CNc2cc(-c3cncc4ccccc34)ccc2N1 [Example 56, 6-(Isoquinolin-4-yl)-3,4-dihydroquinoxalin-2(1H)-one]
27 | > 300 °C |  | CN1CC(=O)Nc2ccc(-c3cccnc3)cc21 [Example 57, 4-Methyl-6-(pyridin-3-yl)-3,4-dihydroquinoxalin-2(1H)-one]
28 | 195 °C |  | CCC(c1cc2c3c(c1)CCN3C(=O)CC2)n1ccnc1 (stereo not shown) [Example 60, 8-(1-(1H-imidazol-1-yl)propyl)-1,2,5,6-tetrahydropyrrolo[3,2,1-ij]quinolin-4-one]
